Assay results published in PubChem BioAssay (NCI).
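Results reflect a 48-hour exposure of cells in 96-well plates to compound at five concentrations. At the GI50, growth is halved. TGI: total growth inhibition.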

Assays:
Experiment in all cases: growth of human tumour cells (NCI), 48 h; in the data active = GI50 below about 0.43 µM; inactive = the rest
786-0 renal = system: 786-0 renal
A498 renal = system: A498 renal
A549 NSCLC = system: A549 NSCLC
ACHN renal = system: ACHN renal
BT-549 breast = system: BT-549 breast
CAKI-1 renal = system: CAKI-1 renal
CCRF-CEM leukemia = system: CCRF-CEM leukemia
COLO 205 colon = system: COLO 205 colon
DU-145 prostate = system: DU-145 prostate
EKVX NSCLC = system: EKVX NSCLC
HCC-2998 colon = system: HCC-2998 colon
HCT-116 colon = system: HCT-116 colon
HCT-15 colon = system: HCT-15 colon
HL-60(TB) leukemia = system: HL-60(TB) leukemia
HOP-62 NSCLC = system: HOP-62 NSCLC
HOP-92 NSCLC = system: HOP-92 NSCLC
HS 578T breast = system: HS 578T breast
HT29 colon = system: HT29 colon
IGROV1 ovarian = system: IGROV1 ovarian
K-562 leukemia = system: K-562 leukemia
KM12 colon = system: KM12 colon
LOX IMVI melanoma = system: LOX IMVI melanoma
M14 melanoma = system: M14 melanoma
MALME-3M melanoma = system: MALME-3M melanoma
MCF7 breast = system: MCF7 breast
MDA-MB-231 breast = system: MDA-MB-231 breast
MDA-MB-435 = system: MDA-MB-435
MDA-MB-468 breast = system: MDA-MB-468 breast
MOLT-4 leukemia = system: MOLT-4 leukemia
NCI-H226 lung = system: NCI-H226 lung
NCI-H23 lung = system: NCI-H23 lung
NCI-H460 lung = system: NCI-H460 lung
NCI-H522 lung = system: NCI-H522 lung
OVCAR-3 ovarian = system: OVCAR-3 ovarian
OVCAR-4 ovarian = system: OVCAR-4 ovarian
OVCAR-5 ovarian = system: OVCAR-5 ovarian
PC-3 prostate = system: PC-3 prostate
RPMI-8226 leukemia = system: RPMI-8226 leukemia
RXF 393 renal = system: RXF 393 renal
SF-268 CNS = system: SF-268 CNS
SF-295 CNS = system: SF-295 CNS
SF-539 CNS = system: SF-539 CNS
SK-MEL-2 melanoma = system: SK-MEL-2 melanoma
SK-MEL-28 melanoma = system: SK-MEL-28 melanoma
SK-MEL-5 melanoma = system: SK-MEL-5 melanoma
SK-OV-3 ovarian = system: SK-OV-3 ovarian
SN12C renal = system: SN12C renal
SNB-19 CNS = system: SNB-19 CNS
SNB-75 CNS = system: SNB-75 CNS
SR leukemia = system: SR leukemia
SW-620 colon = system: SW-620 colon
T-47D breast = system: T-47D breast
TK-10 renal = system: TK-10 renal
U251 CNS = system: U251 CNS
UACC-257 melanoma = system: UACC-257 melanoma
UACC-62 melanoma = system: UACC-62 melanoma
UO-31 renal = system: UO-31 renal

CNC(=O)c1cc(Oc2ccc3nc(NC(=O)Nc4cccc(OC(F)(F)F)c4)sc3c2)ccn1
11.9 µM: TGI (NCI-H23 lung)
4.46 µM: TGI (HOP-92 NSCLC)
7.26 µM: TGI (ACHN renal)
7.09 µM: TGI (HS 578T breast)
5.3 µM: TGI (MALME-3M melanoma)
9.77 µM: TGI (A498 renal)
89 µM: TGI (SF-268 CNS)
4.82 µM: TGI (RXF 393 renal)
21.6 µM: TGI (IGROV1 ovarian)
10.2 µM: TGI (SF-539 CNS)
> 100 µM: TGI (A549 NSCLC) | TGI (CCRF-CEM leukemia) | TGI (COLO 205 colon) | TGI (DU-145 prostate) | TGI (EKVX NSCLC) | TGI (HCC-2998 colon) | TGI (HCT-116 colon) | TGI (HCT-15 colon) | TGI (HL-60(TB) leukemia) | TGI (HT29 colon) | TGI (K-562 leukemia) | TGI (KM12 colon) | TGI (M14 melanoma) | TGI (MCF7 breast) | TGI (MDA-MB-435) | TGI (MOLT-4 leukemia) | TGI (NCI-H460 lung) | TGI (NCI-H522 lung) | TGI (OVCAR-3 ovarian) | TGI (OVCAR-5 ovarian) | TGI (PC-3 prostate) | TGI (RPMI-8226 leukemia) | TGI (SK-MEL-28 melanoma) | TGI (SK-MEL-5 melanoma) | TGI (SN12C renal) | TGI (SR leukemia) | TGI (SW-620 colon) | TGI (T-47D breast) | TGI (UACC-257 melanoma) | TGI (UO-31 renal)
8.12 µM: TGI (SK-MEL-2 melanoma)
3.47 µM: TGI (HOP-62 NSCLC)
10.9 µM: TGI (MDA-MB-231 breast)
6.14 µM: TGI (NCI-H226 lung)
23.6 µM: TGI (LOX IMVI melanoma)
13.5 µM: TGI (MDA-MB-468 breast)
9.23 µM: TGI (OVCAR-4 ovarian)
4.17 µM: TGI (SF-295 CNS)
13.3 µM: TGI (UACC-62 melanoma)
5.55 µM: TGI (SNB-19 CNS)
7.41 µM: TGI (786-0 renal)
4.72 µM: TGI (CAKI-1 renal)
13.2 µM: TGI (TK-10 renal)
6.83 µM: TGI (SK-OV-3 ovarian)
9.02 µM: TGI (BT-549 breast)
inactive: GI50 (786-0 renal) 2710 nM | GI50 (A498 renal) 4.25 µM | GI50 (A549 NSCLC) 2690 nM | GI50 (ACHN renal) 2320 nM | GI50 (BT-549 breast) 3.21 µM | GI50 (CAKI-1 renal) 2010 nM | GI50 (CCRF-CEM leukemia) 9.07 µM | GI50 (COLO 205 colon) 5.43 µM | GI50 (DU-145 prostate) 3.64 µM | GI50 (EKVX NSCLC) 3.56 µM | GI50 (HCC-2998 colon) 8.69 µM | GI50 (HCT-116 colon) 4.67 µM | GI50 (HCT-15 colon) 4.07 µM | GI50 (HL-60(TB) leukemia) > 100 µM | GI50 (HOP-62 NSCLC) 1720 nM | GI50 (HOP-92 NSCLC) 1660 nM | GI50 (HS 578T breast) 2290 nM | GI50 (HT29 colon) 7.9 µM | GI50 (IGROV1 ovarian) 4.65 µM | GI50 (K-562 leukemia) 5.51 µM | GI50 (KM12 colon) 809 nM | GI50 (LOX IMVI melanoma) 4.15 µM | GI50 (M14 melanoma) 5.76 µM | GI50 (MALME-3M melanoma) 1820 nM | GI50 (MCF7 breast) 8.31 µM | GI50 (MDA-MB-231 breast) 2370 nM | GI50 (MDA-MB-435) 4.27 µM | GI50 (MDA-MB-468 breast) 2160 nM | GI50 (MOLT-4 leukemia) > 100 µM | GI50 (NCI-H226 lung) 2560 nM | GI50 (NCI-H23 lung) 2910 nM | GI50 (NCI-H460 lung) 2580 nM | GI50 (NCI-H522 lung) 3.5 µM | GI50 (OVCAR-3 ovarian) 3.27 µM | GI50 (OVCAR-4 ovarian) 2970 nM | GI50 (OVCAR-5 ovarian) 5.58 µM | GI50 (PC-3 prostate) 2220 nM | GI50 (RPMI-8226 leukemia) > 100 µM | GI50 (RXF 393 renal) 1910 nM | GI50 (SF-268 CNS) 4.3 µM | GI50 (SF-295 CNS) 1700 nM | GI50 (SF-539 CNS) 3.07 µM | GI50 (SK-MEL-2 melanoma) 2510 nM | GI50 (SK-MEL-28 melanoma) 2660 nM | GI50 (SK-MEL-5 melanoma) 3.08 µM | GI50 (SK-OV-3 ovarian) 3 µM | GI50 (SN12C renal) 5.11 µM | GI50 (SNB-19 CNS) 2220 nM | GI50 (SNB-75 CNS) 2340 nM | GI50 (SR leukemia) > 100 µM | GI50 (SW-620 colon) 4.94 µM | GI50 (T-47D breast) 5.08 µM | GI50 (TK-10 renal) 4.09 µM | GI50 (U251 CNS) 2430 nM | GI50 (UACC-257 melanoma) 5.89 µM | GI50 (UACC-62 melanoma) 2070 nM | GI50 (UO-31 renal) 3.93 µM
6.27 µM: TGI (U251 CNS)
5.52 µM: TGI (SNB-75 CNS)
